Test results reported in patent US7553929B2, “Cell permeable peptides for inhibition of inflammatory reactions and methods of use” (Vanderbilt University, priority 1994, dated 2009).

Columns and labels:
NIH 3T3 cells [1] = assay: Indirect immunofluorescence assay of peptide import into NIH 3T3 cells; assay type: cell-based
From the text: A 26-residue peptide (referred to as SM, listed herein as SEQ ID NO:1) that contained the predicted signal sequence of Kaposi fibroblast growth factor ^16-17 (K-FGF) was chemically synthesized. An indirect immunofluorescence assay using antibody against epitope tag-containing SM peptide was employed to follow translocation of the SM peptide to the intracellular compartments of NIH 3T3 cells. A polyclonal anti-SM peptide antibody against the SM peptide-keyhole limpet haemocyanin conjugate (Pierce) was raised in rabbits and reacted with SM peptide in ELISA (titer>1:30,000). The intracellular SM peptide was detected by an indirect imrnmunofluorescence assay using affinity-purified anti-SM peptide IgG and rhodamine-labeled anti-rabbit antibody (Kirkegaard & Perry). Briefly, confluent NIH 373 cells on the chamber slides (Nunc) were treated with either 0.5 ml SM peptide solution (100 μg ml^−1) in DMEM containing 10% FBS or with 0.5 ml DMEM containing 10% FBS only for 30 minutes at 37° C. The cells were fixed with 3.5% paraformaldehyde solution in PBS followed by 0.25% Triton X-100 in PBS and then treated with 1:20 anti-SM peptide IgG in PBS containing 0.5% bovine serum albumin (BSA) for 1.5 h. The intracellular SM peptide-antibody complexes were visualized by subsequent incubation with a rhodamine-labeled anti-rabbit polyclonal antibody for 1 h. In control systems, anti-SM peptide antibody was preabsorbed with the SM peptide. Intracellular localization of the SAα peptide was detected by immunofluorescence assay using affinity-purified anti-SM peptide IgG as described above for SM peptide. […] A ten-step z-position sectional scanning of the SM peptide-treated cells by the confocal laser scanning microscopy (CLSM) affirmed that these deposits were intracellular. […] Likewise, cells not exposed to SM peptide or cells exposed to SM peptide followed by the secondary antibody alone were negative. If cells were fixed with paraformaldehyde before peptide treatment, the cellular import of SM peptide was prevented.
To determine the rate of SM peptide import across cell membranes, a kinetic experiment was carried out with the SM peptide-treated NIH 3T3 cells. NIH 3T3 cells were treated at 37° C. with 0.5 ml SM peptide at 100 μg mL^−1 in DMEM containing 10% FBS for 1, 5, 15, 30, 60 and 120 minutes. Intracellular SM peptide deposits were detected by indirect immunofluorescence assay as described above. […] The 30-minute time point was therefore selected to determine the optimal peptide concentrations for detectable import.
To determine the optimal peptide concentration, NIH 3T3 cells were treated for 30 minutes at 37° C. with 0.5 ml SM peptide solution in DMEM containing 10% FBS at the following concentrations: 0, 2, 10, 50, 100, and 150 μg ml^−1. Intracellular localization of the SM peptide was detected by indirect immunofluorescence assay as described above. […] The cellular import was concentration-dependent and reached a plateau between 50 μg/ml and 100 μg/ml.
Transport of the SM peptide across the cell membrane was temperature-dependent. […] Accordingly, cellular import of the SM peptide resumed when the incubation temperature shifted from 4° C. to 37° C.
The intracellular SA peptide could not be tracked by an immunofluorescence assay because it was not recognized by the available anti-SM peptide antibody. However, attaching two extra amino acid residues (Met-Pro) to the carboxyl terminus of the SA peptide produced a modified SA peptide (referred to as SAα, listed herein as SEQ ID NO:4) that contained a 3-amino acid epitope tag, Leu-Met-Pro, recognized by anti-SM peptide antibody in ELISA. […] Like SA peptide, SAα peptide was mitogenic in the thymidine incorporation assay.

[2] = test system: baby hamster kidney-21 cells; assay: Indirect immunofluorescence assay of SM peptide import, baby hamster kidney-21 cells; assay type: cell-based
[3] = test system: human umbilical vein endothelial cells; assay: Indirect immunofluorescence assay of SM peptide import, HUVEC; assay type: cell-based
[4] = test system: rodent endothelial cell line (LE-II); assay: Indirect immunofluorescence assay of peptide import, LE-II cells; assay type: cell-based
NIH 3T3 cells [5] = assay: [3H]thymidine incorporation (mitogenic response) of NIH 3T3 cells; assay type: cell-based
Procedure: A 26-residue hybrid peptide (referred to as SA, listed herein as SEQ ID NO:3) was designed and synthesized. […] Thus, the SA peptide differs from the SM peptide only in its 7-residue carboxyl terminal “cargo” region. A functional assay was performed in which SA peptide was able to induce a mitogenic response of NIH 3T3 cells measured by [^3H]thymidine incorporation in a manner similar to aFGF bearing, the same NLS. ^18
In this functional assay, confluent 3T3 cells grown initially in DMEM containing 10% FBS were transferred to a low serum medium (DMEM containing 0.5% FBS) for 2 days. The test peptides, either SA peptide, SAα pep-tide, ANL peptide, or SM peptide, or aFGF, were added to a fresh low serum medium at the indicated concentrations at 37° C. After 16 hours, [^3H]thymidine was added and 4 hours later, the cells were washed with PBS, treated with trichloroacetic acid, solubilized with 0.15 M NaOH, and the radioactivity was determined in a liquid scintillation counter.
Bars represent the mean±S.E.M. of at least three independent experiments done in triplicate and calculated as multiplicity of counts in the tested sample over the control sample. SA peptide within the concentration range used (0 to 46 μM) was not cytotoxic as determined by staining with fluorescein diacetate/ethidium bromide. ^20

NIH 3T3 cells [6] = assay: DNA synthesis by flow cytometric analysis in serum-starved NIH 3T3 cells; assay type: cell-based; conditions: 15 ng ml^−1, 20 h
Procedure: To further confirm the mitogenic activity of the SA peptide, its effect on DNA synthesis was examined. Serum-starved NIH 3T3 cells were treated with SA peptide, fixed, and the DNA concentration was determined by standard flow cytometric analysis. Specifically, confluent NIH 3T3 cells (1.3×10^6 cells) were serum-starved in DMEM containing 0.5% FBS for 2 days. The cells were untreated (control) or treated with SA peptide or aFGF for 20 h, harvested, spun down, and washed with serum-free PBS, three times. The cells were fixed with methanol precooled to −20° C. for DNA analysis carried out by the Flow Cytometry Research Service of Vanderbilt University. The data were the mean ±S.E.M. of six measurements and were analyzed for statistical significance by analysis of variance.

NIH 3T3 cells [7] = conditions: aFGF binding to FGF receptors on NIH 3T3 cells; cited from earlier work

Substance | Time at which intracellular staining plateaued (NIH 3T3 cells [1]; 100 μg/mL, 37° C.) | Time at which intracellular staining was first observed (NIH 3T3 cells [1]; 100 μg/mL, 37° C.) [min] | Immunofluorescence staining at 4° C. (NIH 3T3 cells [1]; 100 μg/ml, 30 minutes, 4° C.) | Immunofluorescence staining at 22° C. or 37° C. (NIH 3T3 cells [1]; 100 μg/ml, 30 minutes, 22° C. or 37° C.) | Intracellular peptide deposits by indirect immunofluorescence (NIH 3T3 cells [1]; 100 μg/ml, 30 minutes, 37° C.) | Concentration giving detectable intracellular peptide (NIH 3T3 cells [1]; 30 minutes, 37° C.) [µg/mL] | Concentration giving detectable intracellular peptide (molar) (NIH 3T3 cells [1]; 30 minutes, 37° C.) | Cellular import in cells fixed with paraformaldehyde before peptide treatment (NIH 3T3 cells [1]; cells fixed before treatment) | Intracellular localization by indirect immunofluorescence [2] | Intracellular localization by indirect immunofluorescence [3] | Intracellular localization by indirect immunofluorescence [4] | Mitogenic activity in thymidine incorporation assay (NIH 3T3 cells [5]; comparable concentration ranges) | Stimulation of [3H]thymidine incorporation over control (NIH 3T3 cells [5]; serum-starved NIH 3T3 cells, 16 h + 4 h) [fold] | Diploid % S Phase (NIH 3T3 cells [6]) | Tyrosine phosphorylation of intracellular proteins (NIH 3T3 cells [7])
SM peptide: 26-residue peptide: K-FGF signal sequence, spacer, epitope tag; mutated, loss-of-function NLS; cell-permeable control (AAVALLPAVLLALLAPAAADQNQLMP; 1..16 Note/label = a (“Signal peptide amino acid sequence of K-FGF”)) | about 30 minutes | ≤ 5 | No immunofluorescence staining was observed | numerous punctate deposits | intracellular deposits were observed in almost all cells | 2 | about 800 nM | prevented | the same results as with NIH 3T3 cells | the same results as with NIH 3T3 cells | the same results as with NIH 3T3 cells | Neither control peptide showed any significant mitogenic activity |  |  | 
aFGF: acidic fibroblast growth factor |  |  |  |  |  |  |  |  |  |  |  |  | ~8 | 27.8 ± 2.3 (P < 0.05) % | induces the tyrosine phosphorylation
